The record followed here is patent publication US20210205225A1, “BIOAVAILABLE ORAL DOSAGE FORMS” (PTC Therapeutics, Inc., priority 2018, published 2021).

The nature of data set [1]: Solubility of the SDI and a surfactant (5% w/w) in aqueous solution, saturated, RT. In kind it is physicochemical. How it is done: Aqueous suspensions (5% w/w) of the crystalline Compound 1b and the amorphous SDI were prepared in saturated solutions with surfactants selected from SDS, Poloxamer 188, Poloxamer 407, Gelucire 44/14 and Gelucire 50/13.
The solution was not sufficiently translucent to determine when sufficient material was added to provide the saturated solution. As a result, the solution was allowed to stand so that the excess Gelucire settled, and the supernatant was recovered and used for the solubility study. The exact concentration of Gelucire 50/13 in the solution was unknown.

Data set [2] in a line: Phase 1 single-dose lipid capsule PK and food effect study. In kind it is in vivo, human. From the text:
(§1) Compound 1 has been evaluated in a Phase 1, randomized, placebo-controlled, escalating, single-dose, safety, tolerability, PK, and food effect study in healthy adult volunteers. Compound 1 was provided in lipid-filled gelatin capsules. The primary objective of the study was to determine a dose range for Compound 1 that safely achieved pharmacologically active target plasma concentrations (as determined from xenograft studies) and that was appropriate for use in a subsequent multiple-dose study.
(§2) Subjects in the study were enrolled in 2 stages. In Stage 1, 40 subjects were accrued in 5 cohorts of 8 subjects with each cohort receiving a sequentially higher single dose of Compound 1 at dose levels of 0.03, 0.1, 0.3, 1, and 3 mg/kg. Within a cohort, 6 subjects (3 males and 3 females) received Compound 1 and 2 subjects (1 male and 1 female) received placebo. An additional 12 subjects (6 males and 6 females) were enrolled in Stage 2 to evaluate the effect of food on the PK of Compound 1.
(§3) During both Stages 1 and 2 of the study, data regarding adverse events, vital signs, blood counts, coagulation assessments, blood chemistry determinations, urinalyses, and ECGs were collected at baseline and repeatedly over 72 hours after administration of the study medication, and again at a follow-up visit 7 days after the last study treatment. In both Stages 1 and 2, blood samples for assessment of plasma Compound 1 concentrations were collected at multiple timepoints. Compound 1 concentrations were analyzed using LC-MS/MS, validated for human plasma. Blood for measurement of plasma DHODH levels are collected at multiple time points. Plasma DHODH concentrations are analyzed using a clinically validated ELISA (R&D Systems). Similarly, blood for measurement of plasma VEGF-A levels was collected at multiple time points. Plasma VEGF-A concentrations were analyzed using a clinically validated ELISA (R&D Systems).

Data set [3] is described as follows: Clinical BA/BE and food effect study, safety. In kind it is in vivo, human. How it is done: (§4) Compound 1 was administered as a single-dose in Lipid Formulation capsules or as PVP SDI Formulation tablets. The primary objective of the study was to determine the comparative single-dose PK and safety profiles of Compound 1 administered in the 2 formulations. The study was also aimed to study of the food effect on the PK and safety profiles for the PVP SDI Formulation tablet.
(§5) Subjects in the study were enrolled in 3 stages. In Stage 1, 24 subjects were randomly accrued into 3 cohorts of 8 subjects receiving Compound 1 in both the Lipid Formulation capsule and the PVP SDI Formulation tablet at dose levels of 0.5 mg/kg, 1 mg/kg, and 2 mg/kg. In Stage 2, 24 subjects were accrued in 3 cohorts of 8 subjects with each cohort receiving a sequentially higher doses of Compound 1 in the PVP SDI Formulation tablet at dose levels of 400, 800, and 1600 mg. An additional 12 subjects (6 males and 6 females) were enrolled in Stage 3 to evaluate the effect of food on the PK of Compound 1 when administered at 400 mg and 1000 mg in the PVP SDI Formulation tablet.
(§6) During the study, data regarding adverse events, vital signs, blood counts, coagulation assessments, blood chemistry determinations, urinalyses, and ECGs were collected at baseline and repeatedly over 72 hours after administration of the study medication, and again at a follow-up visit 7 days after the last study treatment. Blood samples for assessment of plasma Compound 1 concentrations were collected at multiple timepoints. Compound 1 concentrations were analyzed using LC-MS/MS, validated for human plasma.

Data set [4] is described as follows: Phase 1 single-dose lipid capsule study, safety and tolerability. In kind it is in vivo, human.
From the text: as §1, §2, §3

Data set [5] can be described thus: Clinical BA/BE and food effect study, PVP SDI Formulation tablets vs Lipid Formulation capsules, PK. Type of data set: in vivo, human. Here is the method:
The PVP SDI Formulation tablets prepared in Example 13 were compared to the Lipid Formulation capsules prepared in Example 7 in a clinical BA/BE (bioequivalence/bioavailability) study that evaluated the effect of food on the bioavailability of the PVP SDI Formulation tablets.
as §4, §5, §6

The mark [6] stands for this setting: saturated in 5% w/w Gelucire 44/14 aqueous solution, 0 hrs.
The mark [7] stands for this setting: saturated in 5% w/w Gelucire 44/14 aqueous solution, 24 hrs.
Where [8] appears, read: saturated in 5% w/w Poloxamer 188 aqueous solution, 0 hrs.
The mark [9] stands for this setting: saturated in 5% w/w SDS aqueous solution, 0 hrs.
The mark [10] stands for this setting: saturated in 5% w/w SDS aqueous solution, 24 hrs.
Setting [11] is: saturated in Gelucire 50/13 supernatant solution, 0 hrs.
[12] abbreviates: saturated in Gelucire 50/13 supernatant solution, 24 hrs.
The mark [13] stands for this setting: solid formulation, higher doses.

In brackets after ≈: the same amount, converted by molar mass.

Usually solubility stands for the dissolved amount per volume that the medium holds. For orientation: Solubility means the concentration that dissolves in the medium under given conditions. High values mean much dissolved substance, low ones little dissolved substance. `COc1ccc([C@H]2c3[nH]c4ccc(Cl)cc4c3CCN2C(=O)Oc2ccc(Cl)cc2)cc1` [Sample 2] showed a solubility at 24 h in data set [1] (5% w/w Poloxamer 188 aqueous solution, aqueous with cosolvent or surfactant or cyclodextrin, thermodynamic from solid, saturated in 5% w/w Poloxamer 188 aqueous solution, 24 hrs) of 4.3 µg/mL (≈ 9.2 µM). The Solubility in data set [1] (setting [6]) is 142.5 µg/mL (≈ 305 µM); in data set [1] (setting [7]), 58.4 µg/mL (≈ 125 µM); in data set [1] (setting [8]) it was 0.7 µg/mL (≈ 1.5 µM); in data set [1] (setting [9]) it was 224.7 µg/mL (≈ 481 µM); in data set [1] (setting [10]), 32.4 µg/mL (≈ 69.3 µM); in data set [1] (setting [11]) it was 677.4 µg/mL (≈ 1450 µM). The Solubility in data set [1] (setting [12]) came to 371.5 µg/mL (≈ 795 µM).
Take `COc1ccc([C@H]2c3[nH]c4ccc(Cl)cc4c3CCN2C(=O)Oc2ccc(Cl)cc2)cc1` [Compound 1, 4-chlorophenyl (S)-6-chloro-1-(4-methoxyphenyl)-1,3,4,9-tetrahydro-2H-pyrido[3,4-b]indole-2-carboxylate]: in data set [2] (Stage 1, 0.03-3 mg/kg), the “increases in mean Cmax values with dose” value was “generally dose proportional”. In addition, the “increase of mean Cmax by high-fat, high-calorie meal” value in data set [2] (Stage 2, 1 mg/kg) was “about 40%”. Also, the Tmax in data set [2] (both sexes, human, plasma, oral, lipid capsules, single dose) fell in the range of 3 to 6 h; in data set [5] (human, plasma, oral, single dose) it was 3 to 7 h. The half-life in data set [2] (both sexes, human, plasma, oral, lipid capsules, single dose, read-out: terminal half-life (t1/2β)) lay within 28 to 56 h; in data set [5] (human, plasma, oral, PVP SDI Formulation tablet, Stage 2), 38 to 65 h. In addition, the “low concentrations still evident in plasma” value in data set [2] (lipid capsules, 3.0-mg/kg dose) is at least 168 h. Further, the “persistence of concentrations in plasma” value in data set [2] (lipid capsules, doses 0.30 mg/kg) was at least 72 h; in data set [5] (setting [13]), at least 72 h. Moreover, the “mean Cmax after a high-fat, high-calorie meal” value in data set [2] (lipid capsules, fed vs fasted) is “increased”; in data set [5] (PVP SDI Formulation tablet, fed vs fasted) it was “increased”. Moreover, the “lag time to appearance in plasma” value in data set [2] (lipid-filled gelatin capsules, single dose) was “about 30 minutes”; in data set [5] (setting [13]), “about 30 minutes”. Further, the “laboratory abnormality in 1 subject” value in data set [3] (Stage 1, 2 mg/kg in the Lipid Capsule Formulation, considered unlikely to be drug related) was “Grade 3 elevation of serum creatine kinase”. Further, the “physical examinations, vital sign measurements, ECGs” value in data set [3] (all 3 stages) and in data set [4] (both stages) was “no safety concerns” each time. For the same compound, the “deaths or serious adverse events” value is recorded as “No deaths or serious adverse events” in data set [3] (human, in vivo) and “No deaths or serious adverse events” in data set [4] (in vivo). The tolerability entry in data set [3] (single dose, lipid capsules or PVP SDI tablets) is “generally well tolerated”; in data set [4] (single dose, lipid capsules) it was “generally well tolerated”. The “treatment-emergent adverse event: nausea, subjects receiving Compound 1” value in data set [4] (Stage 1) came to 4 subjects. Moreover, the “treatment-emergent adverse event: headache” value in data set [4] (Stage 1, 40 subjects dosed) is 9 episodes in 8 subjects. In addition, in data set [4] (Stage 2), the “adverse event: back pain” value is 2 episodes in 2 subjects. Further, the “adverse event: headaches” value in data set [4] (Stage 2) worked out at 3 episodes in 3 subjects. Moreover, the “severity of adverse events” value in data set [4] (all except 1 case of Grade 2 diarrhea at 1 mg/kg fasted, Stage 2) was “Grade 1”. For the same compound, in data set [4] (both stages), the “hematology, coagulation, chemistry parameters” value is “No clinically significant changes”. For the same compound, the “increase of mean Cmax and AUC by high-fat, high-calorie meal” value in data set [5] (Stage 3, 400 mg or 1000 mg, PVP SDI Formulation tablet) was “about 100%”. For the same compound, the “concentrations still evident in plasma” value in data set [5] (setting [13]) is at least 168 h.
In the case of `COc1ccc([C@H]2c3[nH]c4ccc(Cl)cc4c3CCN2C(=O)Oc2ccc(Cl)cc2)cc1` [Compound 1b], the Solubility in data set [1] (setting [6]) was 14.7 µg/mL (≈ 31.5 µM); in data set [1] (setting [7]) it was 23.6 µg/mL (≈ 50.5 µM); in data set [1] (setting [8]), 0.2 µg/mL (≈ 0.428 µM); in data set [1] (setting [9]) it was 2.4 µg/mL (≈ 5.14 µM); in data set [1] (setting [10]) it was 6.2 µg/mL (≈ 13.3 µM); in data set [1] (setting [11]), 7.8 µg/mL (≈ 16.7 µM). The same compound came in with a Solubility in data set [1] (setting [12]) of 23.0 µg/mL (≈ 49.2 µM).
